Experimental data reported in patent US20240335541A1, “NANOMATERIALS COMPRISING DIAMINES” (Beam Therapeutics Inc., priority 2021, published 2024).

How the values were obtained:
Assay in all cases: Barcoded pooled LNP biodistribution screen, fold above input (FAI)
Format in all cases: in vivo
Liver = details: Table 4 screening experiment; pooled LNP IV tail vein, mice, 4 hours post-dose
Protocol: (§1) Male and female mice aged approximately 8-12 weeks were used for studies described by the present Example. Each mouse was temporarily restrained and pooled LNP was administered IV via tail vein injection in up to five animals per experiment. Age-matched mice was also used to administer vehicle (1×TBS) via tail vein injection in up to three animals per experiment. Additional routes of administration can also be conducted including intracerebral ventricular (ICV), intracisterna manga (ICM), intrathecal (IT), intramuscular (IM), nebulization, intranasal (IN), subcutaneous (SC), intraarticular, and intradermal (ID). At 4 hours post-dose, tissues including liver, spleen, bone marrow, testes, gastrocnemius, quadricep, lung, heart, kidney, and pancreas may be collected for analysis.
(§2) Liver, kidney, lung, and muscle (e.g. skeletal and cardiac) tissues may be mechanically, and then enzymatically digested using a mixture of proteinases, then passed through a 70 μm filter to generate single cell suspensions. Spleen tissues were mechanically digested to generate single cell suspensions. Tissues were treated with ACK buffer to lyse red blood cells, and then stained with fluorescently-labeled antibodies for flow cytometry and fluorescence-activated cell sorting (FACS). Commercially available antibodies were used in the present example. Using a BD FACSMelody (Becton Dickinson), samples were acquired via flow cytometry to generate gates prior to sorting. In general, the gating structure was size→singlet cells→live cells→cells of interest. T cells were defined as CD45+CD3+, monocytes are defined as CD45+CD11b+, and B cells are defined as CD45+CD19+. Endothelial cells were defined as CD31+, monocytes and Kupffer cells as CD45+CD11b+ and hepatocytes and myocytes were defined as CD31−/CD45− in the liver and muscle, respectively. Tissues from vehicle-dosed mice were used to set the gates for sorting.
(§3) RNA from tissues were extracted using the Reliaprep RNA extraction kit, and libraries were prepared using the RNAseq kit, and sequenced on either a MiSeq or NextSeq500.
(§4) To screen for preferential LNP delivery to a target tissues, the relative abundance of each barcode in one or more target tissues was measured and compared to the relative abundance of each barcode to its corresponding relative input abundance to determine fold above input (FAI) for each barcode. If the FAI of a barcode in a target tissue is above a threshold or above the FAI of a different LNP in the same tissue, the LNP can be identified as preferentially delivering to the target tissue.
(§5) The FAI is the normalized relative abundance of a barcode in a selected sample as compared to its frequency in the input. The FAI of a barcode indicates how a LNP's abundance changes relative to the rest of the LNP pool. The FAI value of the barcode was calculated by normalizing the relative abundance in the barcode sequence counts in the isolated samples to its relative abundance in the administration input. […] The FAI then indicates the performance of an LNP relative to the input LNP composition.

Spleen = details: pooled LNP IV tail vein, mice, 4 hours post-dose
Protocol: as §1, §2, §3, §4, §5

Lung = details: pooled LNP IV tail vein, mice, 4 hours post-dose
Protocol: as §1, §2, §3, §4, §5

CCCCC/C=C\C/C=C\CCCCCCCCC(CCCCCCCC/C=C\C/C=C\CCCCC)OC(=O)CCCN(C)C [MC3, (6Z,9Z,28Z,31Z)-heptatriaconta-6,9,28,31-tetraen-19-yl 4-(dimethylamino) butanoate]
FAI (Liver) (Liver): 0.86
FAI (Spleen) (Spleen; Table 4 screening experiment): 1.94
FAI (Spleen) (Spleen; Table 5 screening experiment): 0.39
FAI (Lung) (Lung; Table 4 screening experiment): 1.13
FAI (Lung) (Lung; Table 5 screening experiment): 0.50
